In ChEMBL document CHEMBL1201862, “PubChem BioAssay data set” (2004):
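Growth conditions: 96-well plates. Treatment: test compound, 48 hours, 5 concentrations. Analysis: linear interpolation between bracketing concentrations; unreached endpoints set to highest concentration. GI50 = concentration required for 50% inhibition of growth.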 The source made the active and inactive calls. Cut-off read from the data, not from the text of the source: active = GI50 up to about 1.1 µM and inactive = higher.

Experiments:
Assay in all cases: inhibition of tumour cell growth, NCI panel, 48 h
Malme-3M = test system: Malme-3M
ACHN = test system: ACHN
HL-60 = test system: HL-60
SR = test system: SR
SF-539 = test system: SF-539
NCI-H226 = test system: NCI-H226
HCC 2998 = test system: HCC 2998
MDA-N = test system: MDA-N
EKVX = test system: EKVX
MCF7 = test system: MCF7
RXF 393 = test system: RXF 393
UACC-62 = test system: UACC-62
NCI/ADR-RES = test system: NCI/ADR-RES
OVCAR-4 = test system: OVCAR-4
HOP-92 = test system: HOP-92
PC-3 = test system: PC-3
T47D = test system: T47D
LOX IMVI = test system: LOX IMVI

SMILES	GI50 (Malme-3M)	GI50 (ACHN)	GI50 (HL-60)	GI50 (SR)	GI50 (SF-539)	GI50 (NCI-H226)	GI50 (HCC 2998)	GI50 (MDA-N)	GI50 (EKVX)	GI50 (MCF7)	GI50 (RXF 393)	GI50 (UACC-62)	GI50 (NCI/ADR-RES)	GI50 (OVCAR-4)	GI50 (HOP-92)	GI50 (PC-3)	GI50 (T47D)	GI50 (LOX IMVI)
COc1ccc2nc3n(c2c1)C(=O)c1ccccc1-3	> 100 µM (inactive)	> 100 µM (inactive)	> 100 µM (inactive)	> 100 µM (inactive)	> 100 µM (inactive)	> 100 µM (inactive)	> 100 µM (inactive)	> 100 µM (inactive)	> 100 µM (inactive)	> 100 µM (inactive)	> 100 µM (inactive)	> 100 µM (inactive)	> 100 µM (inactive)	> 100 µM (inactive)	> 100 µM (inactive)	> 100 µM (inactive)		
CCCS(=O)(=O)O	> 100 µM (inactive)	> 100 µM (inactive)	> 100 µM (inactive)	> 100 µM (inactive)	> 100 µM (inactive)	> 100 µM (inactive)			> 100 µM (inactive)	> 100 µM (inactive)	> 100 µM (inactive)	> 100 µM (inactive)	> 100 µM (inactive)	> 100 µM (inactive)	> 100 µM (inactive)	> 100 µM (inactive)	> 100 µM (inactive)	> 100 µM (inactive)
CC1C(c2ccc3c(c2)OCO3)c2cc3c(cc2OC1N1CCCC1)OCO3 (centres undefined)		29.3 µM (inactive)		35.5 µM (inactive)	16.1 µM (inactive)		17.8 µM (inactive)	16.1 µM (inactive)	37.9 µM (inactive)	33.1 µM (inactive)		53.6 µM (inactive)	29.2 µM (inactive)			32.9 µM (inactive)	35.4 µM (inactive)	34.8 µM (inactive)
Cc1nc2ccccc2n1Cc1nnc(N)o1	> 100 µM (inactive)	> 100 µM (inactive)	> 100 µM (inactive)	> 100 µM (inactive)	> 100 µM (inactive)		> 100 µM (inactive)	> 100 µM (inactive)	> 100 µM (inactive)	> 100 µM (inactive)	> 100 µM (inactive)	> 100 µM (inactive)	> 100 µM (inactive)		> 100 µM (inactive)	> 100 µM (inactive)	> 100 µM (inactive)	> 100 µM (inactive)
Cc1ccc(NC(=S)NNC(=O)c2cc(-c3ccccc3)nc3ccccc23)cc1C	20 µM (inactive)	25.2 µM (inactive)		14.6 µM (inactive)	21.2 µM (inactive)	34.8 µM (inactive)	18.8 µM (inactive)	17.2 µM (inactive)		12.4 µM (inactive)	27 µM (inactive)	16.9 µM (inactive)	23 µM (inactive)	18.1 µM (inactive)	18.6 µM (inactive)	18.7 µM (inactive)	0.853 µM (active)	
O=C(NC1C/C(=N/O)c2c(Br)sc(Br)c21)C(F)(F)F (centres undefined)	45.9 µM (inactive)	34 µM (inactive)	32.4 µM (inactive)		17.3 µM (inactive)	18.4 µM (inactive)	22.6 µM (inactive)	32.3 µM (inactive)	27 µM (inactive)	37.6 µM (inactive)	11.3 µM (inactive)	16.9 µM (inactive)	19.3 µM (inactive)	13.8 µM (inactive)	3.65 µM (inactive)	13.9 µM (inactive)	20.7 µM (inactive)	25.5 µM (inactive)
CCOC(=O)C1=C(C)N(c2ccc(Cl)cc2)C2(O)C=CC(=O)C3C(=O)N(c4ccccc4)C(=O)C132 (centres undefined)	1.66 µM (inactive)	1.59 µM (inactive)	2.76 µM (inactive)	0.292 µM (active)	2.27 µM (inactive)			2.35 µM (inactive)	1.91 µM (inactive)	1.62 µM (inactive)	1.76 µM (inactive)	1.59 µM (inactive)	2.36 µM (inactive)	1.54 µM (inactive)	0.0649 µM (active)	1.5 µM (inactive)	2.3 µM (inactive)	1.36 µM (inactive)
COc1ccc(C(CC(=O)c2ccc(O)cc2)C(C(=O)c2ccc(O)cc2)C(c2ccc(OC)cc2)C2C(=O)NC(=S)NC2=O)cc1 (centres undefined)		19.7 µM (inactive)	32.1 µM (inactive)	38 µM (inactive)		18.7 µM (inactive)		18.8 µM (inactive)		14.5 µM (inactive)		17.7 µM (inactive)	17.9 µM (inactive)	18.8 µM (inactive)	46.9 µM (inactive)	21.8 µM (inactive)		17.9 µM (inactive)
C/C(=C1\N=C(c2ccccc2)OC1=O)c1ccccc1	> 100 µM (inactive)	> 100 µM (inactive)	> 100 µM (inactive)	> 100 µM (inactive)	> 100 µM (inactive)	> 100 µM (inactive)	> 100 µM (inactive)		> 100 µM (inactive)	> 100 µM (inactive)		> 100 µM (inactive)		> 100 µM (inactive)	> 100 µM (inactive)	> 100 µM (inactive)	> 100 µM (inactive)	> 100 µM (inactive)
CO[C@H]1C=C[C@@]23c4cc5c(cc4CO[C@]2(O)CN(C)[C@H]3C1)OCO5	> 100 µM (inactive)	> 100 µM (inactive)	> 100 µM (inactive)		> 100 µM (inactive)	> 100 µM (inactive)	> 100 µM (inactive)	> 100 µM (inactive)	> 100 µM (inactive)	> 100 µM (inactive)		> 100 µM (inactive)	> 100 µM (inactive)	> 100 µM (inactive)	> 100 µM (inactive)	> 100 µM (inactive)	> 100 µM (inactive)	> 100 µM (inactive)
Cc1[nH]c2ncn(/N=C/c3ccccc3O)c(=N)c2c1Cc1ccccc1		54.2 µM (inactive)	23.6 µM (inactive)		30 µM (inactive)	75.5 µM (inactive)	28.9 µM (inactive)	26 µM (inactive)	25 µM (inactive)	33 µM (inactive)	> 100 µM (inactive)	37.2 µM (inactive)	40.6 µM (inactive)	63.5 µM (inactive)	> 100 µM (inactive)	17.6 µM (inactive)	> 100 µM (inactive)	59.2 µM (inactive)
CCCCC1(N=[N+]=[N-])C(=O)c2cccc3c2N(CCC3)C1=O (centres undefined)	> 100 µM (inactive)	> 100 µM (inactive)		> 100 µM (inactive)	> 100 µM (inactive)	> 100 µM (inactive)	> 100 µM (inactive)	> 100 µM (inactive)	> 100 µM (inactive)	> 100 µM (inactive)	> 100 µM (inactive)	69.2 µM (inactive)	31 µM (inactive)	> 100 µM (inactive)	> 100 µM (inactive)	> 100 µM (inactive)	> 100 µM (inactive)	> 100 µM (inactive)
Nc1cc2c(nc3c4ccccc4c(N)cc3[n+]2-c2cccc3ccccc23)c2ccccc12.Nc1cc2c(nc3c4ccccc4ccc3[n+]2-c2cccc3ccccc23)c2ccccc12	1.6 µM (inactive)	2.18 µM (inactive)	1.41 µM (inactive)	1.24 µM (inactive)	7.74 µM (inactive)	12.2 µM (inactive)		1.87 µM (inactive)	1.61 µM (inactive)	0.507 µM (active)	2.45 µM (inactive)	7.89 µM (inactive)	8.18 µM (inactive)	1.71 µM (inactive)	1.2 µM (inactive)	0.465 µM (active)	0.687 µM (active)	1.97 µM (inactive)
NC(=O)Cc1nc2c(O)ncnc2n1C1OC(CO)C(O)C1O (centres undefined)	> 100 µM (inactive)	> 100 µM (inactive)	> 100 µM (inactive)		> 100 µM (inactive)	> 100 µM (inactive)	> 100 µM (inactive)	> 100 µM (inactive)	> 100 µM (inactive)	> 100 µM (inactive)	> 100 µM (inactive)	> 100 µM (inactive)	> 100 µM (inactive)	> 100 µM (inactive)	> 100 µM (inactive)	> 100 µM (inactive)	> 100 µM (inactive)	> 100 µM (inactive)
COc1cc([C@@H]2c3cc4c(cc3[C@@H](c3c(O)cc(O)c5c3O[C@H](c3ccc(O)c(O)c3)[C@@H](O)C5)[C@H]3COC(=O)[C@H]23)OCO4)cc(OC)c1O	> 100 µM (inactive)	> 100 µM (inactive)	27 µM (inactive)		58.7 µM (inactive)		> 100 µM (inactive)	34.7 µM (inactive)	> 100 µM (inactive)	> 100 µM (inactive)	> 100 µM (inactive)	> 100 µM (inactive)	> 100 µM (inactive)	> 100 µM (inactive)	> 100 µM (inactive)	> 100 µM (inactive)	> 100 µM (inactive)	> 100 µM (inactive)
O=C(O)c1ccc(NS(=O)(=O)Cc2ccccc2)cc1	> 100 µM (inactive)	> 100 µM (inactive)	> 100 µM (inactive)	> 100 µM (inactive)	> 100 µM (inactive)		> 100 µM (inactive)	> 100 µM (inactive)	> 100 µM (inactive)	> 100 µM (inactive)	> 100 µM (inactive)	> 100 µM (inactive)	> 100 µM (inactive)	> 100 µM (inactive)	> 100 µM (inactive)	> 100 µM (inactive)	> 100 µM (inactive)	> 100 µM (inactive)
COCCO [2-METHOXYETHANOL]	> 100 µM (inactive)		> 100 µM (inactive)		> 100 µM (inactive)	> 100 µM (inactive)	> 100 µM (inactive)		> 100 µM (inactive)	> 100 µM (inactive)	> 100 µM (inactive)	> 100 µM (inactive)	> 100 µM (inactive)	> 100 µM (inactive)	> 100 µM (inactive)			> 100 µM (inactive)
